# From article PMC7998309, “Structural-Based Optimizations of the Marine-Originated Meridianin C as Glucose Uptake Agents by Inhibiting GSK-3β” (Marine Drugs, 2021)
# Key:
# [1] = MTT assay for cell viability (cytotoxicity); assay type: cell-based, human; settings: human; HepG2 cells, 48 h incubation, MTT
# Experimental: The hepatocyte cell line HepG2 cells obtained from the Type Culture Collection of the Chinese Academy of Sciences (Shanghai, China) were maintained in high-glucose DMEM (Gibco) supplemented with 10% fetal bovine serum (FBS) and 1% penicillin-streptomycin in an atmosphere of 5% CO2 at 37 °C.
# Into a 96-well plate, 1 × 10^3 HepG2 cells per well were seeded. After 24 h, stock solutions of test compounds in DMSO were diluted in DMEM to ≤0.1% final DMSO concentration. Cells were treated with various concentrations (2.5–25 µM) of tested compounds for 48 h, and the MTT solution (0.5 mg/mL) was added. After 4 h of incubation at 37 °C for MTT-formazan formation, the supernatant was discarded and 100 µL of DMSO was applied into each well to dissolve formazan crystals. Absorbance at 490 nm was determined spectrophotometrically by using a microplate reader (Epoch, BioTek Instruments, Inc., Winooski, VT, USA).
melting point,Structure (SMILES),CC50 at 48 h [1]
187.6 to 188.3 °C,"CCCC(=O)Nc1ccc(-c2cnc(N)nc2-c2c[nH]c3ccc(Br)cc23)cc1 [A2, N-(4-(2-amino-4-(5-bromo-1H-indol-3-yl)pyrimidin-5-yl)phenyl) Butyramide]",> 25 µM
251.3 to 252.2 °C,"Fc1cc(F)cc(Nc2nccc(-c3c[nH]c4ccc(Br)cc34)n2)c1 [B23, 4-(5-Bromo-1H-indol-3-yl)-N-(3,5-difluorophenyl) pyrimidin-2-amine]",16.1 µM
139.6 to 140.3 °C,"CC(C)(C)C(=O)Nc1ccc(-c2cnc(N)nc2-c2c[nH]c3ccc(Br)cc23)cc1 [A4, N-(4-(2-amino-4-(5-bromo-1H-indol-3-yl)pyrimidin-5-yl)phenyl) Pivalamide]",11.9 µM
214.8 to 215.6 °C,"Brc1cccc(Nc2nccc(-c3c[nH]c4ccc(Br)cc34)n2)c1 [B8, 4-(5-Bromo-1H-indol-3-yl)-N-(3-bromophenyl) pyrimidin-2-amine]",18.7 µM
184.6 to 185.3 °C,"COc1ccc(C(=O)Nc2ccc(-c3cnc(N)nc3-c3c[nH]c4ccc(Br)cc34)cc2)cc1 [A24, N-(4-(2-amino-4-(5-bromo-1H-indol-3-yl)pyrimidin-5-yl)phenyl)-4-methoxybenzamide]",4.3 µM
223.6 to 224.3 °C,"Clc1cc(Cl)cc(Nc2nccc(-c3c[nH]c4ccc(Br)cc34)n2)c1 [B24, 4-(5-Bromo-1H-indol-3-yl)-N-(3,5-dichlorophenyl) pyrimidin-2-amine]",10.5 µM
187.9 to 188.6 °C,"Nc1ncc(-c2ccc(NC(=O)c3ccccc3)cc2)c(-c2c[nH]c3ccc(Br)cc23)n1 [A6, N-(4-(2-amino-4-(5-bromo-1H-indol-3-yl)pyrimidin-5-yl)phenyl) Benzamide]",12.5 µM
189.3 to 190.2 °C,"Nc1ncc(-c2ccc(NC(=O)c3cc4ccccc4cn3)cc2)c(-c2c[nH]c3ccc(Br)cc23)n1 [A28, N-(4-(2-amino-4-(5-bromo-1H-indol-3-yl)pyrimidin-5-yl)phenyl) isoquinoline-3-carboxamide]",> 25 µM
303.8 to 304.4 °C,"Nc1ncc(-c2ccc(NC(=O)c3cccs3)cc2)c(-c2c[nH]c3ccc(Br)cc23)n1 [A27, N-(4-(2-amino-4-(5-bromo-1H-indol-3-yl)pyrimidin-5-yl)phenyl) thiophene-2-carboxamide]",10 µM
276.4 to 277.3 °C,"Nc1ncc(-c2ccc(NC(=O)c3ccc(Br)cc3)cc2)c(-c2c[nH]c3ccc(Br)cc23)n1 [A15, N-(4-(2-amino-4-(5-bromo-1H-indol-3-yl)pyrimidin-5-yl)phenyl)-4-bromobenzamide]",7.1 µM
163.6 to 164.3 °C,"Nc1ncc(-c2ccc(NC(=O)c3ccccc3C(F)(F)F)cc2)c(-c2c[nH]c3ccc(Br)cc23)n1 [A16, N-(4-(2-amino-4-(5-bromo-1H-indol-3-yl)pyrimidin-5-yl)phenyl)-2-(trifluoromethyl) Benzamide]",9.9 µM
211.8 to 212.9 °C,"Cc1cccc(C(=O)Nc2ccc(-c3cnc(N)nc3-c3c[nH]c4ccc(Br)cc34)cc2)c1 [A20, N-(4-(2-amino-4-(5-bromo-1H-indol-3-yl)pyrimidin-5-yl)phenyl)-3-methylbenzamide]",13.2 µM
255.6 to 256.8 °C,"COc1cc(Nc2nccc(-c3c[nH]c4ccc(Br)cc34)n2)cc(OC)c1 [B28, 4-(5-Bromo-1H-indol-3-yl)-N-(3,5-dimethoxyphenyl) pyrimidin-2-amine]",10 µM
210.3 to 211.4 °C,"Clc1cccc(Nc2nccc(-c3c[nH]c4ccc(Br)cc34)n2)c1 [B5, 4-(5-Bromo-1H-indol-3-yl)-N-(3-chlorophenyl) pyrimidin-2-amine]",> 25 µM
197.6 to 198.7 °C,"Brc1ccc2[nH]cc(-c3ccnc(Nc4ccccc4)n3)c2c1 [B22, 4-(5-Bromo-1H-indol-3-yl)-N-phenylpyrimidin-2-amine]",10.4 µM
154.9 to 155.6 °C,"COc1ccccc1C(=O)Nc1ccc(-c2cnc(N)nc2-c2c[nH]c3ccc(Br)cc23)cc1 [A22, N-(4-(2-amino-4-(5-bromo-1H-indol-3-yl)pyrimidin-5-yl)phenyl)-2-methoxybenzamide]",> 25 µM
172.6 to 173.3 °C,"Nc1ncc(-c2ccc(NC(=O)c3cccc(C(F)(F)F)c3)cc2)c(-c2c[nH]c3ccc(Br)cc23)n1 [A17, N-(4-(2-amino-4-(5-bromo-1H-indol-3-yl)pyrimidin-5-yl)phenyl)-3-(trifluoromethyl) Benzamide]",14.3 µM
218.7 to 219.4 °C,"CC(C)c1ccc(Nc2nccc(-c3c[nH]c4ccc(Br)cc34)n2)cc1 [B21, 4-(5-Bromo-1H-indol-3-yl)-N-(4-isopropylphenyl) pyrimidin-2-amine]",13 µM
204.8 to 205.2 °C,"Nc1ncc(-c2ccc(NC(=O)c3cccc(Cl)c3)cc2)c(-c2c[nH]c3ccc(Br)cc23)n1 [A11, N-(4-(2-amino-4-(5-bromo-1H-indol-3-yl)pyrimidin-5-yl)phenyl)-3-chlorobenzamide]",18.5 µM
227.8 to 228.6 °C,"Cc1ccc(Nc2nccc(-c3c[nH]c4ccc(Br)cc34)n2)cc1 [B15, 4-(5-Bromo-1H-indol-3-yl)-N-(p-tolyl) pyrimidin-2-amine]",15.5 µM
279.5 to 280.3 °C,"FC(F)(F)c1ccc(Nc2nccc(-c3c[nH]c4ccc(Br)cc34)n2)cc1 [B12, 4-(5-Bromo-1H-indol-3-yl)-N-(4-(trifluoromethyl)phenyl) pyrimidin-2-amine]",> 25 µM
261.7 to 262.5 °C,"Nc1ncc(-c2ccc(NC(=O)c3ccc(Cl)cc3)cc2)c(-c2c[nH]c3ccc(Br)cc23)n1 [A12, N-(4-(2-amino-4-(5-bromo-1H-indol-3-yl)pyrimidin-5-yl)phenyl)-4-chlorobenzamide]",7.5 µM
193.6 to 194.2 °C,"CCC(=O)Nc1ccc(-c2cnc(N)nc2-c2c[nH]c3ccc(Br)cc23)cc1 [A1, N-(4-(2-amino-4-(5-bromo-1H-indol-3-yl)pyrimidin-5-yl)phenyl) Propionamide]",16.7 µM
208.7 to 209.3 °C,"COc1cccc(Nc2nccc(-c3c[nH]c4ccc(Br)cc34)n2)c1 [B17, 4-(5-Bromo-1H-indol-3-yl)-N-(3-methoxyphenyl) pyrimidin-2-amine]",10.6 µM
152.6 to 153.4 °C,"CC(C)c1cccc(Nc2nccc(-c3c[nH]c4ccc(Br)cc34)n2)c1 [B20, 4-(5-Bromo-1H-indol-3-yl)-N-(3-isopropylphenyl) pyrimidin-2-amine]",12.5 µM
220.9 to 221.3 °C,"FC(F)(F)c1cc(Nc2nccc(-c3c[nH]c4ccc(Br)cc34)n2)cc(C(F)(F)F)c1 [B26, N-(3,5-bis(trifluoromethyl)phenyl)-4-(5-bromo-1H-indol-3-yl) pyrimidin-2-amine]",11.8 µM
141.5 to 142.3 °C,"Cc1cccc(Nc2nccc(-c3c[nH]c4ccc(Br)cc34)n2)c1 [B14, 4-(5-Bromo-1H-indol-3-yl)-N-(m-tolyl) pyrimidin-2-amine]",8.6 µM
